System: rat livers
Experiment: Partial freezing of rat livers with 12% glycerol with or without ice modulators, SNMP recovery
From the text: Experimental design: FIG. 39 outlines the rat liver partial freezing protocol in eight consecutive steps: (1) liver procurement, (2) preconditioning during SNMP, (3) CPA preloading during hypothermic machine perfusion (HMP), (4) loading of final storage solution and ice modulators during HMP, (5) partial freezing of rat liver, (6) thawing of rat liver, (7) unloading of CPAs during HMP, and (8) functional recovery of frozen rat livers during SNMP.
Within this protocol, we first compared partially frozen livers at −10° C. (n=4 livers) and −15° C. (n=9 livers) with 12% glycerol. Upon finding minimal differences between these two groups, we combined them as a control and compared them to livers partially frozen with 0.5 mg/ml (0.05% w/v) of AFGP (n=4 livers) or 0.1% X-1000/0.2% Z-1000 (total, 0.3% w/v; n=4 livers) ice modulating agents added to the preservation solution. After freezing, liver viability on SNMP was compared between the 12% glycerol control group and the two ice modulated groups.
Partial freezing protocol: The rat liver perfusion system involved perfusion through the cannulated portal vein (PV) with regulation of pressure, flow, and temperature. Detailed set-up of the perfusion system has been previously described (see, e.g., ref. 34). The total rat hepatectomy protocol was approved by the Institutional Animal Care and Use Committee (IACUC) of Massachusetts General Hospital (Boston, MA). Livers were procured from male Lewis rats (250-300 g, age 10-12 weeks. Charles River Laboratories, Wilmington, MA) (FIG. 39, step 1). The bile duct was isolated and cannulated, and the rats were heparinized with 30U sodium heparin. PV splenic and gastric branches, as well as the hepatic artery were ligated prior to cannulation. The PV was subsequently cannulated with a 16-gauge catheter and immediately flushed with 40 ml of heparinized saline (1000U/ml at room temperature). The liver was then freed from all peritoneal attachments, flushed with an additional 20 ml of heparinized saline. After procurement, the liver was weighed, and machine perfusion was immediately initiated.
Preconditioning during SNMP was initiated at 21° C. with a flow rate of 5 ml/min (FIG. 39, step 2). […] The rat livers were perfused for 1 hour with 500 ml of preconditioning solution including Williams E, 200 U/l of insulin, 2% w/v PEG, 50 g/L BSA, 100 mM 3-O-methylglucose (3-OMG), 10,000 U/l of heparin, 24 mg/L of dexamethasone, 25 mg/ml of hydrocortisone, 40,000 μg/l of penicillin, and 40,000 U/l of streptomycin and sodium bicarbonate as needed to maintain a physiological pH (see Table 9 for composition of all solutions).
After 1 hour of preconditioning during SNMP, the temperature was decreased to 4° C. at a rate of ˜1° C./min. Flow rates were gradually adjusted as necessary to ensure a maximum perfusion pressure of 3-5 mmHg during HMP. The SNMP preconditioning solution was switched to 500 ml CPA preloading solution at 4° C. (including Williams E, 200 U/l of insulin, 2% PEG, 50 g/L BSA, 100 mM 3-OMG, 30 mM raffinose, 3% hydroxyethyl starch (HES), 6% glycerol, 4000 U/l of heparin, 24 mg/l of dexamethasone, 25 mg/ml of hydrocortisone, 40,000 μg/l of penicillin, 40,000 U/l of streptomycin, and sodium bicarbonate as needed to maintain a physiological pH) (FIG. 39, step 3; Table 9). HMP was continued for 1 hour to ensure complete equilibration of solution throughout the liver parenchyma. […]

[1] = after SNMP recovery, pooled 1 and 5 days

With `OCC(O)CO` [GLY, glycerol] the mean perfusate lactate (12% glycerol only, pooled 1 and 5 days, at time zero) was 1.17 ± 0.61 mmol/L, the “function of livers frozen at −10° C. vs −15° C. (perfusion metrics, weight gain, ATP, EC)” value (12% glycerol, pooled 1 and 5 days) was “not functionally different” and the “H&E staining of liver parenchyma” value (after 1 and 5 day partial freezing) was “sinusoidal damage and compression, peri-portal endothelial destruction”. The TUNEL staining (after 1 and 5 days of frozen storage) was “remarkably less TUNEL staining”, the “mean ATP” value [1] was 0.187 ± 0.075 µg/mL and the “mean energy charge (EC), (ATP+1/2ADP)/(ATP+ADP+AMP)” value [1] was 0.066±0.032. The “final mean weight gain” value (end of SNMP recovery vs weight after procurement, pooled 1 and 5 days) was 26.9±15.3%, the mean vascular resistance (pooled 1 and 5 days, at 0 hours) was 0.528±0.39 mmHg/ml/min and the mean perfusate potassium (pooled 1 and 5 days, at 1 hour) was 6.5 ± 1.01 mmol/L.

From patent US20240268372A1, “Methods and Compositions for Extending Organ and Tissue Preservation” (The General Hospital Corporation, priority 2021, published 2024)
